Measured values from ChEMBL document CHEMBL3399973, “Synthesis and biological evaluation of isoxazoline derivatives as potent M₁ muscarinic acetylcholine receptor agonists” (Bioorg Med Chem Lett, 2015).
Values belong to the compound of their own block, whether it stands above or below them.

Assays:
[1] = target: T1, Muscarinic acetylcholine receptor M1 (Homo sapiens) (UniProt P11229); conditions: HEK293, at 10 µM
T1 sequence (whole entry): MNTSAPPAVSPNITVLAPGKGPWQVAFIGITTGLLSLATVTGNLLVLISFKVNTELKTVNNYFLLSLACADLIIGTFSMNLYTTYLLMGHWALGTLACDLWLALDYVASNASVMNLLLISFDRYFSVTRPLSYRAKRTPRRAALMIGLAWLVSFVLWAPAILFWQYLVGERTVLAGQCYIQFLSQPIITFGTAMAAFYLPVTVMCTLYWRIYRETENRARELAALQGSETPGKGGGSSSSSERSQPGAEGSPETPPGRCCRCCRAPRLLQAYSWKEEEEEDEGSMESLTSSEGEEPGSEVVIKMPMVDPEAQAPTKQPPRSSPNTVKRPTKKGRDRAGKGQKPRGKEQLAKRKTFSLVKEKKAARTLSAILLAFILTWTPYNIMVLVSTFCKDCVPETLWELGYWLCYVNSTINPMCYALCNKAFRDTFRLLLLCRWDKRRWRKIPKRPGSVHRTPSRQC

[2] = target: T1, Muscarinic acetylcholine receptor M1 (Homo sapiens); conditions: HEK293, at 10 µM; remark: listed apart in the source
[3] = target: T2, Muscarinic acetylcholine receptor M1 (Homo sapiens, UniProt P11229)
T2 sequence (P11229 whole entry): T1 sequence (whole entry)

SH-SY5Y [4] = assay: Induction of sAPPalpha release in human SH-SY5Y cells assessed as fold changed at 0.01 uM after 1 hr by immunoblotting analysis relative to 100 uM acetylcholine response; type: functional
[5] = target: T1, Muscarinic acetylcholine receptor M1 (Homo sapiens); assay: Agonist activity at human m1 muscarinic acetylcholine receptor expressed in HEK293 cells assessed as relative ratio of phosphorylated ERK1/2 to ERK1/2 at 1 uM after 2 mins by Western blotting analysis relative to 100 uM acetylcholine response; type: cell-based
SH-SY5Y [6] = assay: Induction of sAPPalpha release in human SH-SY5Y cells assessed as fold changed at 0.1 uM after 1 hr by immunoblotting analysis relative to 100 uM acetylcholine response; type: functional
[7] = target: T1, Muscarinic acetylcholine receptor M1 (Homo sapiens); assay: Agonist activity at human m1 muscarinic acetylcholine receptor expressed in HEK293 cells assessed as relative ratio of phosphorylated ERK1/2 to ERK1/2 at 10 uM after 2 mins by Western blotting analysis relative to 100 uM acetylcholine response; type: cell-based
SH-SY5Y [8] = assay: Induction of sAPPalpha release in human SH-SY5Y cells after 1 hr by immunoblotting analysis; type: functional, cell-based
[9] = target: T1, Muscarinic acetylcholine receptor M1 (Homo sapiens); assay: Agonist activity at human m1 muscarinic acetylcholine receptor expressed in HEK293 cells assessed as activation of ERK1/2 phosphorylation after 2 mins by Western blotting analysis; type: cell-based
SH-SY5Y [10] = assay: Induction of sAPPalpha release in human SH-SY5Y cells assessed as fold changed at 1 uM after 1 hr by immunoblotting analysis relative to 100 uM acetylcholine response; type: functional
[11] = target: T1, Muscarinic acetylcholine receptor M1 (Homo sapiens); assay: Agonist activity at human m1 muscarinic acetylcholine receptor expressed in HEK293 cells assessed as relative ratio of phosphorylated ERK1/2 to ERK1/2 at 100 uM after 2 mins by Western blotting analysis relative to 100 uM acetylcholine response; type: cell-based

Compound: CN1CCC=C(C2=NOC(Sc3ccccc3)C2)C1 (stereo not drawn)
inhibition [1]: 49.4%
Efficacy [2]: 2.3%

Compound: O=C1CCCN1C1CC(CCN2CCCCC2)=NO1 (stereo not drawn)
inhibition [1]: 20.7%
Efficacy [2]: 2.2%

Compound: CN1CCC=C(C2=NOC(C#N)C2)C1 (stereo not drawn)
Efficacy [2]: 58.8%
EC50 [3]: 7540 nM

Compound: CN1CCCC(C2=NOC(N3CCCC3=O)C2)C1 (stereo not drawn)
inhibition [1]: 20.7%
Efficacy [2]: 2.2%

Compound: CN1CCC=C(C2=NOC(N3CCCC3=O)C2)C1 (stereo not drawn)
fold change (FC) (SH-SY5Y [4]): 1.5
Ratio [5]: 1.3
fold change (FC) (SH-SY5Y [6]): 2.5
Efficacy [2]: 99.5%
Ratio [7]: 1.7
Activity (SH-SY5Y [8]): Dose-dependent effect
Activity [9]: Dose-dependent effect
fold change (FC) (SH-SY5Y [10]): 3.4
Ratio [11]: 1.8
EC50 [3]: 31 nM

Compound: O=C1CCCN1C1CC(CN2CCCC2)=NO1 (stereo not drawn)
inhibition [1]: 20.7%
Efficacy [2]: 2.2%

Compound: O=C1CCCN1C1CC(CN2CCCCC2)=NO1 (stereo not drawn)
inhibition [1]: 20.7%
Efficacy [2]: 2.2%

Compound: CN1CCC=C(c2ccon2)C1
Efficacy [2]: 95.8%
EC50 [3]: 780 nM

Compound: CCOC1CC(C2=CCCN(C)C2)=NO1 (stereo not drawn)
inhibition [1]: 34%
Efficacy [2]: 2.4%

Compound: O=C1CCCN1CC#CCN1CCCC1 [OXOTREMORINE]
Efficacy [2]: 108%
EC50 [3]: 1.6 nM

The next lines start with the values.

Efficacy [2]: 83%
EC50 [3]: 21 nM
Compound: CO/N=C/C1=CCCN(C)C1 [MILAMELINE]

Efficacy [2]: 61.3%
EC50 [3]: 5680 nM
Compound: CSCC1CC(C2=CCCN(C)C2)=NO1 (stereo not drawn)

inhibition [1]: 20.7%
Efficacy [2]: 2.2%
Compound: O=C1CCCN1C1CC(CCN2CCCC2)=NO1 (stereo not drawn)

Efficacy [2]: 36.9%
EC50 [3]: 17300 nM
Compound: CN1CCC=C(C2=NOC(O)C2)C1 (stereo not drawn)

inhibition [1]: 12.3%
Efficacy [2]: 1.7%
Compound: CN1CCC=C(C2=NOC(CO)C2)C1 (stereo not drawn)
